Some results are limits rather than exact numbers.

The target of this test is T1, Full-length USP19 (Homo sapiens, UniProt O94966).
T1 construct: Full-length USP19 was purchased from Boston Biochem (E-576); purchased Boston Biochem E-576
T1 sequence (O94966 1-1318): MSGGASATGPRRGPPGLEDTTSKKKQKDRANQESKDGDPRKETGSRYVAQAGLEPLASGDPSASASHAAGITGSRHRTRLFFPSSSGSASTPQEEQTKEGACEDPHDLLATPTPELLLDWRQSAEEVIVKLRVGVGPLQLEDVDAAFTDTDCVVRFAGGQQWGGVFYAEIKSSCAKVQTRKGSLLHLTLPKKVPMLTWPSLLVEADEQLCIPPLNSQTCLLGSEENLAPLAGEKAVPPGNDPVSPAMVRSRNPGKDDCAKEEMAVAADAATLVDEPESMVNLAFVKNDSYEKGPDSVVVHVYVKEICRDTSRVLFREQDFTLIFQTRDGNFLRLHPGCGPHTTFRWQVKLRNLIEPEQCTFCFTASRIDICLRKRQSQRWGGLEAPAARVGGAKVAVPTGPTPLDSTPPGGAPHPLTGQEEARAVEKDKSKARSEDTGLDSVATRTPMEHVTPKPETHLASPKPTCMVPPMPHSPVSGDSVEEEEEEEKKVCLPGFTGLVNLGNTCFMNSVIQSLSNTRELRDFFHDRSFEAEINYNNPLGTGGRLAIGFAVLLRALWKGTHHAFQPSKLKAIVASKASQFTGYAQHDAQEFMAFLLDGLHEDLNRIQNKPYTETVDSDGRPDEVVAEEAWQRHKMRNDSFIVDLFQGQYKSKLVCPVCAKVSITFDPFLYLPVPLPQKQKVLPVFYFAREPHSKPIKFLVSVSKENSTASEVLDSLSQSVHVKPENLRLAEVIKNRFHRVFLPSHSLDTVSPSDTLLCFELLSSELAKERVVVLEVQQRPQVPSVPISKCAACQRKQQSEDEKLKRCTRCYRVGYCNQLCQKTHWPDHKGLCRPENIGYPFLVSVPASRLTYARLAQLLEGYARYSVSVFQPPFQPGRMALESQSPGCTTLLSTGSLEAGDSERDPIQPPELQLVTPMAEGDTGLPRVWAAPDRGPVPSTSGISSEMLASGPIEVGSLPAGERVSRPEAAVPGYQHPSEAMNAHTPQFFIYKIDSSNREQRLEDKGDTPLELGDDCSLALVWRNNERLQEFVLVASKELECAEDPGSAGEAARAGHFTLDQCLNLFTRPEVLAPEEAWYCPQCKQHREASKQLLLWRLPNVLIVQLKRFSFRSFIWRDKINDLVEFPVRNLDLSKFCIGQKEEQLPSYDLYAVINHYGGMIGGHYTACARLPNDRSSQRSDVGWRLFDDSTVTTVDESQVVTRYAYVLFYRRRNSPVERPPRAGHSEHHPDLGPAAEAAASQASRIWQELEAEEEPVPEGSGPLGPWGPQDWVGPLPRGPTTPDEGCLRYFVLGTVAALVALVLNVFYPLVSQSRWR
Kind of test: USP19 fluorescence polarisation (FP) homogeneous assay with Ubiquitin-Lys-TAMRA substrate. Type of test: biochemical. To be noted: 2.5 nM USP19, 30 min pre-incubation, average of at least two duplicate experiments. An outline of the steps:
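Full-length USP19 preincubated 30 min at RT with inhibitor (200 μM to 2 μM series, 8–18 points) before adding 500 nM Ubiquitin-Lys-TAMRA substrate.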
For orientation: In fluorescence polarisation assays a small probe gives low polarisation when free and higher when bound to something large.

For `O=C(N1CCC(O)(Cn2cnc(-c3ccccc3)cc2=O)C2(CCCC2)C1)N1CCCC1c1cccnc1` (centres unmarked) [Example 245, 3-((10-Hydroxy-7-(2-(pyridin-3-yl)pyrrolidine-1-carbonyl)-7-azaspiro[4.5]decan-10-yl)methyl)-6-phenylpyrimidin-4(3H)-one], the IC50 (as a rule, the concentration at which inhibition is half-maximal) fell in the range of 0.5 to 5 µM. `O=C(N1CCC(n2cccc2)C1)N1CCC(O)(Cn2cnc(-c3ccccc3)cc2=O)C2(CCCC2)C1` (centres unmarked) [Example 246, 3-((7-(3-(1H-Pyrrol-1-yl)pyrrolidine-1-carbonyl)-10-hydroxy-7-azaspiro[4.5]decan-10-yl)methyl)-6-phenylpyrimidin-4(3H)-one]: the IC50 fell in the range of 5 to 50 µM. Regarding `CC(C1CC1)N(C)C(=O)N1CCC(O)(Cn2cnc(-c3ccccc3)cc2=O)C2(CCCC2)C1` (centres unmarked) [Example 247, N-(1-Cyclopropylethyl)-10-hydroxy-N-methyl-10-((6-oxo-4-phenylpyrimidin-1(6H)-yl)methyl)-7-azaspiro[4.5]decane-7-carboxamide], the IC50 lay in the range of 5 to 50 µM. In the case of `O=C(N1CCC(O)(Cn2cnc(-c3ccccc3)cc2=O)C2(CCCC2)C1)N1CCOCC1C1CC1` (centres unmarked) [Example 248, 3-((7-(3-Cyclopropylmorpholine-4-carbonyl)-10-hydroxy-7-azaspiro[4.5]decan-10-yl)methyl)-6-phenylpyrimidin-4(3H)-one], the IC50 fell in the range of 5 to 50 µM. For `O=C(N1CCC(O)(Cn2cnc(-c3ccccc3)cc2=O)C2(CCCC2)C1)N1CCCC1c1ccncc1` (centres unmarked) [Example 249, 3-((10-Hydroxy-7-(2-(pyridin-4-yl)pyrrolidine-1-carbonyl)-7-azaspiro[4.5]decan-10-yl)methyl)-6-phenylpyrimidin-4(3H)-one], the IC50 is 0.5 to 5 µM. Take `O=C(N1CCCC2(CC2)C1)N1CCC(O)(Cn2cnc(-c3ccccc3)cc2=O)C2(CCCC2)C1` (centres unmarked) [Example 250, 3-((10-Hydroxy-7-(5-azaspiro[2.5]octane-5-carbonyl)-7-azaspiro[4.5]decan-10-yl)methyl)-6-phenylpyrimidin-4(3H)-one]: the IC50 is 5 to 50 µM. The result for `CN(Cc1cccc(C#N)c1)C(=O)N1CCC(O)(Cn2cnc(-c3ccccc3)cc2=O)C2(CCCC2)C1` (centres unmarked) [Example 251, N-(3-Cyanobenzyl)-10-hydroxy-N-methyl-10-((6-oxo-4-phenylpyrimidin-1(6H)-yl)methyl)-7-azaspiro[4.5]decane-7-carboxamide] reads 0.5 to 5 µM; that for `O=C(N1CC(C2CC2)C1)N1CCC(O)(Cn2cnc(-c3ccccc3)cc2=O)C2(CCCC2)C1` (centres unmarked) [Example 252, 3-((7-(3-Cyclopropylazetidine-1-carbonyl)-10-hydroxy-7-azaspiro[4.5]decan-10-yl)methyl)-6-phenylpyrimidin-4(3H)-one], 5 to 50 µM. For `O=C(N1CCOC(F)(F)C1)N1CCC(O)(Cn2cnc(-c3ccccc3)cc2=O)C2(CCCC2)C1` (centres unmarked) [Example 253, 3-((7-(2,2-Difluoromorpholine-4-carbonyl)-10-hydroxy-7-azaspiro[4.5]decan-10-yl)methyl)-6-phenylpyrimidin-4(3H)-one], the IC50 fell in the range of 5 to 50 µM. With `O=C(NCc1ccccc1F)N1CCC(O)(Cn2cnc(-c3ccccc3)cc2=O)C2(CCCC2)C1` (centres unmarked) [Example 254, N-(2-Fluorobenzyl)-10-hydroxy-10-((6-oxo-4-phenylpyrimidin-1(6H)-yl)methyl)-7-azaspiro[4.5]decane-7-carboxamide], the half-maximal inhibitory concentration (IC50) was less than 0.5 µM. For the compound `CC(NC(=O)N1CCC(O)(Cn2cnc(-c3ccccc3)cc2=O)C2(CCCC2)C1)c1ccoc1` (centres unmarked) [Example 255, N-(1-(Furan-3-yl)ethyl)-10-hydroxy-10-((6-oxo-4-phenylpyrimidin-1(6H)-yl)methyl)-7-azaspiro[4.5]decane-7-carboxamide], the IC50 is 0.5 to 5 µM.

For `CC1(CNC(=O)N2CCC(O)(Cn3cnc(-c4ccccc4)cc3=O)C3(CCCC3)C2)CC1` (centres unmarked) [Example 256, 10-Hydroxy-N-((1-methylcyclopropyl)methyl)-10-((6-oxo-4-phenylpyrimidin-1(6H)-yl)methyl)-7-azaspiro[4.5]decane-7-carboxamide], the IC50 fell in the range of 5 to 50 µM.

For the compound `N#Cc1cccc(CNC(=O)N2CCC(O)(Cn3cnc(-c4ccccc4)cc3=O)C3(CCCC3)C2)c1` (centres unmarked) [Example 257, N-(3-Cyanobenzyl)-10-hydroxy-10-((6-oxo-4-phenylpyrimidin-1(6H)-yl)methyl)-7-azaspiro[4.5]decane-7-carboxamide], the IC50 lay within 5 to 50 µM.

For the compound `N#CCc1ccc(CNC(=O)N2CCC(O)(Cn3cnc(-c4ccccc4)cc3=O)C3(CCCC3)C2)cc1` (centres unmarked) [Example 258, N-(4-(Cyanomethyl)benzyl)-10-hydroxy-10-((6-oxo-4-phenylpyrimidin-1(6H)-yl)methyl)-7-azaspiro[4.5]decane-7-carboxamide], the IC50 fell in the range of 5 to 50 µM. Take `O=C(NCC1=CCCOC1)N1CCC(O)(Cn2cnc(-c3ccccc3)cc2=O)C2(CCCC2)C1` (centres unmarked) [Example 259, N-((5,6-Dihydro-2H-pyran-3-yl)methyl)-10-hydroxy-10-((6-oxo-4-phenylpyrimidin-1(6H)-yl)methyl)-7-azaspiro[4.5]decane-7-carboxamide]: the IC50 is 5 to 50 µM. The same measure for `O=C(NCc1ccc2c(c1)COC2)N1CCC(O)(Cn2cnc(-c3ccccc3)cc2=O)C2(CCCC2)C1` (centres unmarked) [Example 260, N-((1,3-Dihydroisobenzofuran-5-yl)methyl)-10-hydroxy-10-((6-oxo-4-phenylpyrimidin-1(6H)-yl)methyl)-7-azaspiro[4.5]decane-7-carboxamide]: 5 to 50 µM; for `O=C(N1CCC(O)(Cn2cnc(-c3ccccc3)cc2=O)C2(CCCC2)C1)N1CCOCC12CCCCC2` (centres unmarked) [Example 261, 3-((10-Hydroxy-7-(4-oxa-1-azaspiro[5.5]undecane-1-carbonyl)-7-azaspiro[4.5]decan-10-yl)methyl)-6-phenylpyrimidin-4(3H)-one]: 5 to 50 µM; for `O=C(N1CCC(C(F)F)C1)N1CCC(O)(Cn2cnc(-c3ccccc3)cc2=O)C2(CCCC2)C1` (centres unmarked) [Example 262, 3-((7-(3-(Difluoromethyl)pyrrolidine-1-carbonyl)-10-hydroxy-7-azaspiro[4.5]decan-10-yl)methyl)-6-phenylpyrimidin-4(3H)-one]: 5 to 50 µM. The result for `O=C(N1CCC(O)(Cn2cnc(-c3ccccc3)cc2=O)C2(CCCC2)C1)N1CCOCC1C(F)(F)F` (centres unmarked) [Example 263, 3-((10-Hydroxy-7-(3-(trifluoromethyl)morpholine-4-carbonyl)-7-azaspiro[4.5]decan-10-yl)methyl)-6-phenylpyrimidin-4(3H)-one] reads 5 to 50 µM; that for `O=C(N1CCC(O)(Cn2cnc(-c3ccccc3)cc2=O)C2(CCCC2)C1)N1CCCC1C1CC1` (centres unmarked) [Example 264, 3-((7-(2-Cyclopropylpyrrolidine-1-carbonyl)-10-hydroxy-7-azaspiro[4.5]decan-10-yl)methyl)-6-phenylpyrimidin-4(3H)-one], 0.5 to 5 µM. For the compound `O=C(N1CCC(O)(Cn2cnc(-c3ccccc3)cc2=O)C2(CCCC2)C1)N1CCC[C@H]1c1ccon1` (stereo partly drawn) [Example 265, 3-((10-Hydroxy-7-((S)-2-(isoxazol-3-yl)pyrrolidine-1-carbonyl)-7-azaspiro[4.5]decan-10-yl)methyl)-6-phenylpyrimidin-4(3H)-one], the IC50 lay in the range of 0.5 to 5 µM. The result for `CN(C)C(=O)[C@@H]1CCCN1C(=O)N1CCC(O)(Cn2cnc(-c3ccccc3)cc2=O)C2(CCCC2)C1` (stereo partly drawn) [Example 266, (2S)-1-(10-Hydroxy-10-((6-oxo-4-phenylpyrimidin-1(6H)-yl)methyl)-7-azaspiro[4.5]decane-7-carbonyl)-N,N-dimethylpyrrolidine-2-carboxamide] reads 50 to 250 µM; that for `O=C(N1CCC(O)(Cn2cnc(-c3ccccc3)cc2=O)C2(CCCC2)C1)N1CCC[C@H]1Cc1cccs1` (stereo partly drawn) [Example 267, 3-((10-Hydroxy-7-((S)-2-(thiophen-2-ylmethyl)pyrrolidine-1-carbonyl)-7-azaspiro[4.5]decan-10-yl)methyl)-6-phenylpyrimidin-4(3H)-one], 50 to 250 µM.

The record behind these values is patent publication US20220033397A1, “PHARMACEUTICAL COMPOUNDS AND THEIR USE AS INHIBITORS OF UBIQUITIN SPECIFIC PROTEASE 19 (USP19)” (ALMAC DISCOVERY LIMITED, priority 2018, published 2022).
